Measured values taken from the kinase profiling compilation of Christmann-Franck et al. (2016).

Key:
PIM1 (human) [1] = molecular target: PIM1 (human) (UniProt P11309); experiment: SelectScreen, TR FRET
PIM2 (human) [2] = molecular target: PIM2 (human) (UniProt Q9P1W9); experiment: SelectScreen, TR FRET
[3] = system: EGFR (human), P00533 [P753S; 747-752 del]; experiment: KINOMEscan competition binding; conditions: compound 10.0 µM
[4] = system: EGFR (human), P00533 [G719S]; experiment: KINOMEscan competition binding; conditions: compound 10.0 µM
[5] = system: EGFR (human), P00533 [747-751 del / S ins]; experiment: KINOMEscan competition binding; conditions: compound 10.0 µM
PIM1 (human) [6] = molecular target: PIM1 (human) (UniProt P11309); experiment: KINOMEscan competition binding; conditions: compound 10.0 µM
RPS6KA4 KD2 (human) = RPS6KA4 KD2 (human) (UniProt O75676); experiment: KINOMEscan competition binding; conditions: compound 10.0 µM
TAOK1 (human) = TAOK1 (human) (UniProt Q7L7X3); experiment: KINOMEscan competition binding; conditions: compound 10.0 µM
RIPK2 (human) = RIPK2 (human) (UniProt O43353); experiment: KINOMEscan competition binding; conditions: compound 10.0 µM
CSNK2A1 (human) = CSNK2A1 (human) (UniProt P68400); experiment: KINOMEscan competition binding; conditions: compound 10.0 µM
AAK1 (human) = AAK1 (human) (UniProt Q2M2I8); experiment: KINOMEscan competition binding; conditions: compound 10.0 µM
[7] = system: EGFR (human), P00533 [L858R]; experiment: KINOMEscan competition binding; conditions: compound 10.0 µM
PIM2 (human) [8] = molecular target: PIM2 (human) (UniProt Q9P1W9); experiment: KINOMEscan competition binding; conditions: compound 10.0 µM
MAPK15 (human) = MAPK15 (human) (UniProt Q8TD08); experiment: KINOMEscan competition binding; conditions: compound 10.0 µM
GAK (human) = GAK (human) (UniProt O14976); experiment: KINOMEscan competition binding; conditions: compound 10.0 µM
EGFR (human) = EGFR (human) (UniProt P00533); experiment: KINOMEscan competition binding; conditions: compound 10.0 µM
CIT (human) = CIT (human) (UniProt O14578); experiment: KINOMEscan competition binding; conditions: compound 10.0 µM
PIK3CD (human) = PIK3CD (human) (UniProt O00329); experiment: KINOMEscan competition binding; conditions: compound 10.0 µM
CSNK2A2 (human) = CSNK2A2 (human) (UniProt P19784); experiment: KINOMEscan competition binding; conditions: compound 10.0 µM
[9] = system: EGFR (human), P00533 [G719C; 746-750 del]; experiment: KINOMEscan competition binding; conditions: compound 10.0 µM
BMPR2 (human) = BMPR2 (human) (UniProt Q13873); experiment: KINOMEscan competition binding; conditions: compound 10.0 µM
TIE1 (human) = TIE1 (human) (UniProt P35590); experiment: KINOMEscan competition binding; conditions: compound 10.0 µM
PIK3C2B (human) = PIK3C2B (human) (UniProt O00750); experiment: KINOMEscan competition binding; conditions: compound 10.0 µM
DAPK3 (human) = DAPK3 (human) (UniProt O43293); experiment: KINOMEscan competition binding; conditions: compound 10.0 µM
PIK3CG (human) = PIK3CG (human) (UniProt P48736); experiment: KINOMEscan competition binding; conditions: compound 10.0 µM
[10] = molecular target: TYK2 JH2 pseudokinase (human) (UniProt P29597); experiment: KINOMEscan competition binding; conditions: compound 10.0 µM
DAPK2 (human) = DAPK2 (human) (UniProt Q9UIK4); experiment: KINOMEscan competition binding; conditions: compound 10.0 µM
MYLK4 (human) = MYLK4 (human) (UniProt Q86YV6); experiment: KINOMEscan competition binding; conditions: compound 10.0 µM
[11] = system: EGFR (human), P00533 [A750P; 747-749 del]; experiment: KINOMEscan competition binding; conditions: compound 10.0 µM
STK17B (human) = STK17B (human) (UniProt O94768); experiment: KINOMEscan competition binding; conditions: compound 10.0 µM
CLK2 (human) = CLK2 (human) (UniProt P49760); experiment: KINOMEscan competition binding; conditions: compound 10.0 µM
[12] = system: EGFR (human), P00533 [L861Q]; experiment: KINOMEscan competition binding; conditions: compound 10.0 µM
ACVR2B (human) = ACVR2B (human) (UniProt Q13705); experiment: KINOMEscan competition binding; conditions: compound 10.0 µM
STK17A (human) = STK17A (human) (UniProt Q9UEE5); experiment: KINOMEscan competition binding; conditions: compound 10.0 µM
TEK (human) = TEK (human) (UniProt Q02763); experiment: KINOMEscan competition binding; conditions: compound 10.0 µM
PIM3 (human) = PIM3 (human) (UniProt Q86V86); experiment: KINOMEscan competition binding; conditions: compound 10.0 µM
RPS6KA6 KD2 (human) = RPS6KA6 KD2 (human) (UniProt Q9UK32); experiment: KINOMEscan competition binding; conditions: compound 10.0 µM
MYLK3 (human) = MYLK3 (human) (UniProt Q32MK0); experiment: KINOMEscan competition binding; conditions: compound 10.0 µM
HIPK1 (human) = HIPK1 (human) (UniProt Q86Z02); experiment: KINOMEscan competition binding; conditions: compound 10.0 µM
DAPK1 (human) = DAPK1 (human) (UniProt P53355); experiment: KINOMEscan competition binding; conditions: compound 10.0 µM
[13] = system: EGFR (human), P00533 [752-759 del]; experiment: KINOMEscan competition binding; conditions: compound 10.0 µM
STK4 (human) = STK4 (human) (UniProt Q13043); experiment: KINOMEscan competition binding; conditions: compound 10.0 µM
PTK2B (human) = PTK2B (human) (UniProt Q14289); experiment: KINOMEscan competition binding; conditions: compound 10.0 µM
PRKD1 (human) = PRKD1 (human) (UniProt Q15139); experiment: KINOMEscan competition binding; conditions: compound 10.0 µM
ROS1 (human) = ROS1 (human) (UniProt P08922); experiment: KINOMEscan competition binding; conditions: compound 10.0 µM
RPS6KA2 KD2 (human) = RPS6KA2 KD2 (human) (UniProt Q15349); experiment: KINOMEscan competition binding; conditions: compound 10.0 µM
PLK3 (human) = PLK3 (human) (UniProt Q9H4B4); experiment: KINOMEscan competition binding; conditions: compound 10.0 µM
PLK1 (human) = PLK1 (human) (UniProt P53350); experiment: KINOMEscan competition binding; conditions: compound 10.0 µM
AKT3 (human) = AKT3 (human) (UniProt Q9Y243); experiment: KINOMEscan competition binding; conditions: compound 10.0 µM
INSR (human) = INSR (human) (UniProt P06213); experiment: KINOMEscan competition binding; conditions: compound 10.0 µM
MYLK (human) = MYLK (human) (UniProt Q15746); experiment: KINOMEscan competition binding; conditions: compound 10.0 µM
ALK (human) = ALK (human) (UniProt Q9UM73); experiment: KINOMEscan competition binding; conditions: compound 10.0 µM
DCLK2 (human) = DCLK2 (human) (UniProt Q8N568); experiment: KINOMEscan competition binding; conditions: compound 10.0 µM
PTK2 (human) = PTK2 (human) (UniProt Q05397); experiment: KINOMEscan competition binding; conditions: compound 10.0 µM
PLK4 (human) = PLK4 (human) (UniProt O00444); experiment: KINOMEscan competition binding; conditions: compound 10.0 µM
DCLK1 (human) = DCLK1 (human) (UniProt O15075); experiment: KINOMEscan competition binding; conditions: compound 10.0 µM
CSNK1E (human) = CSNK1E (human) (UniProt P49674); experiment: KINOMEscan competition binding; conditions: compound 10.0 µM
INSRR (human) = INSRR (human) (UniProt P14616); experiment: KINOMEscan competition binding; conditions: compound 10.0 µM
DMPK (human) = DMPK (human) (UniProt Q09013); experiment: KINOMEscan competition binding; conditions: compound 10.0 µM
STK33 (human) = STK33 (human) (UniProt Q9BYT3); experiment: KINOMEscan competition binding; conditions: compound 10.0 µM
TNK1 (human) = TNK1 (human) (UniProt Q13470); experiment: KINOMEscan competition binding; conditions: compound 10.0 µM
ULK2 (human) = ULK2 (human) (UniProt Q8IYT8); experiment: KINOMEscan competition binding; conditions: compound 10.0 µM
FER (human) = FER (human) (UniProt P16591); experiment: KINOMEscan competition binding; conditions: compound 10.0 µM
RPS6KA1 KD2 (human) = RPS6KA1 KD2 (human) (UniProt Q15418); experiment: KINOMEscan competition binding; conditions: compound 10.0 µM
TTK (human) = TTK (human) (UniProt P33981); experiment: KINOMEscan competition binding; conditions: compound 10.0 µM

RPS6KA6 KD2 (human), sequence (Q9UK32 whole entry, looked up): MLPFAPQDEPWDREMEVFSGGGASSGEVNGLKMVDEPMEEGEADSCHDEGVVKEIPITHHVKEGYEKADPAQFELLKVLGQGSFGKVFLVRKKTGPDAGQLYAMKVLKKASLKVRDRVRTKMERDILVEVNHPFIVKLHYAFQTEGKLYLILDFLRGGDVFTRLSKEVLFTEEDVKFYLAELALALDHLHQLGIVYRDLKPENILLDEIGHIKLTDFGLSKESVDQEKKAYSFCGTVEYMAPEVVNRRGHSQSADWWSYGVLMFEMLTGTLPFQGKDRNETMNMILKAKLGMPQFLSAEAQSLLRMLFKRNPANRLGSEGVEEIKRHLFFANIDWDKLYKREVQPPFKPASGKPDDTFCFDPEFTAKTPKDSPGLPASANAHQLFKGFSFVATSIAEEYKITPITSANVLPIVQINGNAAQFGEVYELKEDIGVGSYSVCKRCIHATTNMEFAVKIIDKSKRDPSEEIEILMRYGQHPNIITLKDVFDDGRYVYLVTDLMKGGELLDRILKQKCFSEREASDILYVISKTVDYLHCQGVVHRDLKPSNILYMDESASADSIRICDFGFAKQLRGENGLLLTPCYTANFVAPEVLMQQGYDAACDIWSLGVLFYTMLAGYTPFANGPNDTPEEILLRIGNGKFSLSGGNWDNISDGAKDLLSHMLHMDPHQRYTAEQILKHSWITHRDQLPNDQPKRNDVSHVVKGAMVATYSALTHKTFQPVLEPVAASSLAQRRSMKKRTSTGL
GAK (human), sequence (O14976 whole entry, looked up): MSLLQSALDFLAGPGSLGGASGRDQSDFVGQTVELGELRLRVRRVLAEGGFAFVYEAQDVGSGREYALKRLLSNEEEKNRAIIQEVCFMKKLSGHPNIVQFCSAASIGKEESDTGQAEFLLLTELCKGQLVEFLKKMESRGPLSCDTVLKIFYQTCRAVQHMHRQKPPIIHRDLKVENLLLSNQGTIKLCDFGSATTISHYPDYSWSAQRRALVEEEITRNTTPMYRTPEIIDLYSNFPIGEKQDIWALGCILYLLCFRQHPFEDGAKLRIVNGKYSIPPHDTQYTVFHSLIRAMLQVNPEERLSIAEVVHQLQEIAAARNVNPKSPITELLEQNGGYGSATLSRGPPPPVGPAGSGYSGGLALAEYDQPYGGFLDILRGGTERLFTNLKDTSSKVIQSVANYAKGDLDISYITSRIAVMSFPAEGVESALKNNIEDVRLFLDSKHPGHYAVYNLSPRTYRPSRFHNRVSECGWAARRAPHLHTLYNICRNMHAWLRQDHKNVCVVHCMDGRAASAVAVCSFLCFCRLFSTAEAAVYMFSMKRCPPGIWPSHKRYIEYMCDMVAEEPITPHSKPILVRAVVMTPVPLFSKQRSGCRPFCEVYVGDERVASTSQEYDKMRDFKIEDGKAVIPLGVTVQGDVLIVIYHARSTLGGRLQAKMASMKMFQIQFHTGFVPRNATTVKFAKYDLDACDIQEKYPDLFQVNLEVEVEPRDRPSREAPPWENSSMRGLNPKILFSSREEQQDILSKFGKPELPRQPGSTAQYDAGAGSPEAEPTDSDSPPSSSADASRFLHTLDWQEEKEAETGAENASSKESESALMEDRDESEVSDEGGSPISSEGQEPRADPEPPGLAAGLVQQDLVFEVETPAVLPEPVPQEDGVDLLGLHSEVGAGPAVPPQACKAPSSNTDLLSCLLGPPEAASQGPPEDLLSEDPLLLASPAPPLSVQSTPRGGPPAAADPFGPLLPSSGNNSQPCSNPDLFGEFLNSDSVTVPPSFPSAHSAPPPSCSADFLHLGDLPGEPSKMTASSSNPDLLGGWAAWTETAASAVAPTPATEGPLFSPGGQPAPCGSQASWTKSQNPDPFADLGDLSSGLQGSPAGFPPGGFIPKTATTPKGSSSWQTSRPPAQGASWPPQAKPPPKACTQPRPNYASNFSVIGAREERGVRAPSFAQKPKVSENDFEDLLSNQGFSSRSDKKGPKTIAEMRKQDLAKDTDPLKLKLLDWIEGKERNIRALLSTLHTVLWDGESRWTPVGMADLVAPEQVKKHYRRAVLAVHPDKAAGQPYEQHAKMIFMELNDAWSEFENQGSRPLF
PIM1 (human), sequence (P11309 whole entry, looked up): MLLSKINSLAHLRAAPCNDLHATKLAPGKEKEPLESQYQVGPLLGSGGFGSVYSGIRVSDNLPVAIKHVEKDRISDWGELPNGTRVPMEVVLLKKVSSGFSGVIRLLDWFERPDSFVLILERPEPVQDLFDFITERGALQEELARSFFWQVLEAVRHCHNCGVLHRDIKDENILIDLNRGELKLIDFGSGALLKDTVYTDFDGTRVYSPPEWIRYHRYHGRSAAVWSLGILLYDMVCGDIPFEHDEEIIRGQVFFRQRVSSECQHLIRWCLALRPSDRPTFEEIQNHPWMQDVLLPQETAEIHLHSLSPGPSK
PIM2 (human), sequence (Q9P1W9 whole entry, looked up): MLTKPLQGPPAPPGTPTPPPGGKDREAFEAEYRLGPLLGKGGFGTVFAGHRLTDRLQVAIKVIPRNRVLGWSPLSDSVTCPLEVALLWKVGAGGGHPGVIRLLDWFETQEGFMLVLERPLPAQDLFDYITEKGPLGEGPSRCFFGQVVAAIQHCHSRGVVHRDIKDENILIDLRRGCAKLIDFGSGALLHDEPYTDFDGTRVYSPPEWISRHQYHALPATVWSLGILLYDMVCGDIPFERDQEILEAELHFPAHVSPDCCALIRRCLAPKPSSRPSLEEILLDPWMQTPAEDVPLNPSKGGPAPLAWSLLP
DAPK3 (human), sequence (O43293 whole entry, looked up): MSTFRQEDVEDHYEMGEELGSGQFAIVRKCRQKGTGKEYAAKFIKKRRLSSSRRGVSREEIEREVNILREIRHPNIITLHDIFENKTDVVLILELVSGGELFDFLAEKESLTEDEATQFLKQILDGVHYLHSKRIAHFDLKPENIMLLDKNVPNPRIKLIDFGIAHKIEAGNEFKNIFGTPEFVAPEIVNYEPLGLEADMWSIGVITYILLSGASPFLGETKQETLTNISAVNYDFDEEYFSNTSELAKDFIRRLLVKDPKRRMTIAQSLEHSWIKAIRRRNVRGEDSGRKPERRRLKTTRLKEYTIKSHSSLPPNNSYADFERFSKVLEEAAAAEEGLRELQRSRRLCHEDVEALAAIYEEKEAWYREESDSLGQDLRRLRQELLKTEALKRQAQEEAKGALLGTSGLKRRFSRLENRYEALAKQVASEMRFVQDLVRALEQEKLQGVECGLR
DAPK2 (human), sequence (Q9UIK4 whole entry, looked up): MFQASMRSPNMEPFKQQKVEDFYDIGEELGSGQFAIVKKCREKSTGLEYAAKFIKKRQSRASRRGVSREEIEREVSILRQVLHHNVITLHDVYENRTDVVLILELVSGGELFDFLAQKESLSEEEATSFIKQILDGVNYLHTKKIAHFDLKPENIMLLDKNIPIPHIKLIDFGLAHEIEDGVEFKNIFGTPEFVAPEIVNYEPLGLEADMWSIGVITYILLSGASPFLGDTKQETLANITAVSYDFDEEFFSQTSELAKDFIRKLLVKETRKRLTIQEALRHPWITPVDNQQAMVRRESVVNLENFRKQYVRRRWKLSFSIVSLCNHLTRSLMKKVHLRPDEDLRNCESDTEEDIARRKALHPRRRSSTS
CLK2 (human), sequence (P49760 whole entry, looked up): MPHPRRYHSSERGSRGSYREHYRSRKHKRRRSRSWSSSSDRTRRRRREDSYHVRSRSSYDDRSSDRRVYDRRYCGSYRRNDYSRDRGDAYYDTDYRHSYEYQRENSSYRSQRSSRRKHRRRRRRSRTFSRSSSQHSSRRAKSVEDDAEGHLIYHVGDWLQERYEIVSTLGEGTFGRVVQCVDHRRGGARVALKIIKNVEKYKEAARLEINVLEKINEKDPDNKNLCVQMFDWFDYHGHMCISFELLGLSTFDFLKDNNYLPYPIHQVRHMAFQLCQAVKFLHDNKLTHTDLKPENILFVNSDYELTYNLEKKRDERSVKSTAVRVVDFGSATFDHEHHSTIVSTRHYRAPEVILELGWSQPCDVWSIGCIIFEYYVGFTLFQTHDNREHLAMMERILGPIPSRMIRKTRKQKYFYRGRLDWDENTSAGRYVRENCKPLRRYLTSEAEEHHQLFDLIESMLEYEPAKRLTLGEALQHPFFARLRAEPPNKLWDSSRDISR
CSNK1E (human), sequence (P49674 whole entry, looked up): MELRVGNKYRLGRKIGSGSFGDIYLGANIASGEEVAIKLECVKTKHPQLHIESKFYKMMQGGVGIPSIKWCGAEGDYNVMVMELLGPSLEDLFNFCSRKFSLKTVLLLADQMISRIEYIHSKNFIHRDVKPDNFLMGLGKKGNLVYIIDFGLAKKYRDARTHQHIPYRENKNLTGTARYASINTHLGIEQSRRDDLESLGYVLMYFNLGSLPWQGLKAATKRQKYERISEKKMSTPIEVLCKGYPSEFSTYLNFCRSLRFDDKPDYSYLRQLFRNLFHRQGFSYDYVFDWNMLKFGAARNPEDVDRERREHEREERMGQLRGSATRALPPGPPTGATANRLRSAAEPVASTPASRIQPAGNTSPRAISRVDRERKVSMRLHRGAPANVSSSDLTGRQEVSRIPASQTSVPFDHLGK

With O=C1NC(=O)/C(=C/c2ccc(-c3ccc(F)cc3O)o2)S1 the IC50 (PIM1 (human) [1]) was 94 nM, the IC50 (PIM2 (human) [2]) was 158 nM and the kinase still bound, per cent of control [3] was 14%. For the same molecule, the kinase still bound, per cent of control [4] was 19%, the kinase still bound, per cent of control [5] was 1.9% and the kinase still bound, per cent of control (PIM1 (human) [6]) was 2.7%. For the same molecule, the kinase still bound, per cent of control (RPS6KA4 KD2 (human)) was 22%, the kinase still bound, per cent of control (TAOK1 (human)) was 8.4% and the kinase still bound, per cent of control (RIPK2 (human)) was 32%. It also gave a kinase still bound, per cent of control (CSNK2A1 (human)) of 4.4%, a kinase still bound, per cent of control (AAK1 (human)) of 35% and a kinase still bound, per cent of control [7] of 20%. For the same molecule, the kinase still bound, per cent of control (PIM2 (human) [8]) was 2%, the kinase still bound, per cent of control (MAPK15 (human)) was 3.6% and the kinase still bound, per cent of control (GAK (human)) was 9.3%. It also gave a kinase still bound, per cent of control (EGFR (human)) of 29%, a kinase still bound, per cent of control (CIT (human)) of 0.2% and a kinase still bound, per cent of control (PIK3CD (human)) of 27%. It also gave a kinase still bound, per cent of control (CSNK2A2 (human)) of 4.2%, a kinase still bound, per cent of control [9] of 15% and a kinase still bound, per cent of control (BMPR2 (human)) of 12%. For the same molecule, the kinase still bound, per cent of control (TIE1 (human)) was 25%, the kinase still bound, per cent of control (PIK3C2B (human)) was 19% and the kinase still bound, per cent of control (DAPK3 (human)) was 25%. For the same molecule, the kinase still bound, per cent of control (PIK3CG (human)) was 4%, the kinase still bound, per cent of control [10] was 33% and the kinase still bound, per cent of control (DAPK2 (human)) was 12%. For the same molecule, the kinase still bound, per cent of control (MYLK4 (human)) was 17%, the kinase still bound, per cent of control [11] was 5.8% and the kinase still bound, per cent of control (STK17B (human)) was 3.3%. It also gave a kinase still bound, per cent of control (CLK2 (human)) of 27%, a kinase still bound, per cent of control [12] of 28% and a kinase still bound, per cent of control (ACVR2B (human)) of 9.9%. The kinase still bound, per cent of control (STK17A (human)) was 1.5%, the kinase still bound, per cent of control (TEK (human)) was 2.1% and the kinase still bound, per cent of control (PIM3 (human)) was 4.8%. The kinase still bound, per cent of control (RPS6KA6 KD2 (human)) was 18%, the kinase still bound, per cent of control (MYLK3 (human)) was 29% and the kinase still bound, per cent of control (HIPK1 (human)) was 5%. The kinase still bound, per cent of control (DAPK1 (human)) was 10% and the kinase still bound, per cent of control [13] was 9.8%.

In the case of COc1cc(N2CCN(CCO)CC2)ccc1Nc1ncc2c(n1)N(C1CCCC1)CCC(=O)N2C, the kinase still bound, per cent of control (STK4 (human)) is reported as 0%, the kinase still bound, per cent of control [3] is reported as 24% and the kinase still bound, per cent of control [4] is reported as 31%. The kinase still bound, per cent of control [5] was 20%, the kinase still bound, per cent of control [7] was 31% and the kinase still bound, per cent of control (PTK2B (human)) was 13%. The kinase still bound, per cent of control (PRKD1 (human)) was 29%, the kinase still bound, per cent of control (ROS1 (human)) was 0% and the kinase still bound, per cent of control (GAK (human)) was 1.4%. It also gave a kinase still bound, per cent of control (EGFR (human)) of 29%, a kinase still bound, per cent of control (RPS6KA2 KD2 (human)) of 16% and a kinase still bound, per cent of control (PLK3 (human)) of 12%. For the same molecule, the kinase still bound, per cent of control (PLK1 (human)) was 0%, the kinase still bound, per cent of control (AKT3 (human)) was 0% and the kinase still bound, per cent of control (INSR (human)) was 30%. It also gave a kinase still bound, per cent of control (MYLK (human)) of 14%, a kinase still bound, per cent of control (ALK (human)) of 11% and a kinase still bound, per cent of control [9] of 28%. It also gave a kinase still bound, per cent of control (DCLK2 (human)) of 14%, a kinase still bound, per cent of control (PTK2 (human)) of 3.4% and a kinase still bound, per cent of control (PLK4 (human)) of 9.4%. For the same molecule, the kinase still bound, per cent of control (DAPK3 (human)) was 28%, the kinase still bound, per cent of control (DCLK1 (human)) was 4.2% and the kinase still bound, per cent of control (CSNK1E (human)) was 0%. The kinase still bound, per cent of control (DAPK2 (human)) was 32%, the kinase still bound, per cent of control (INSRR (human)) was 32% and the kinase still bound, per cent of control [11] was 18%. For the same molecule, the kinase still bound, per cent of control (DMPK (human)) was 0%, the kinase still bound, per cent of control (STK33 (human)) was 7.2% and the kinase still bound, per cent of control (RPS6KA6 KD2 (human)) was 20%. The kinase still bound, per cent of control (TNK1 (human)) was 20%, the kinase still bound, per cent of control (ULK2 (human)) was 2% and the kinase still bound, per cent of control (FER (human)) was 24%. The kinase still bound, per cent of control (RPS6KA1 KD2 (human)) was 32%, the kinase still bound, per cent of control [13] was 23% and the kinase still bound, per cent of control (TTK (human)) was 1.8%.
